# Assay results reported in ChEMBL document CHEMBL1201862, “PubChem BioAssay data set” (2004).
#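 In this assay, cells in 96-well plates receive the compound at five concentrations for 48 hours. Endpoints are linearly interpolated between the surrounding concentrations. Here, GI50 denotes the concentration required for 50% inhibition of growth.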 Activity calls are given as the source filed them. No stated cut-off is given here; in the data, active = GI50 up to about 1.1 µM and inactive = higher.
# Tests used:
# Assay in all cases: NCI anticancer screen, dose series, 48 h
# 786-0 = test system: 786-0
# A498 = test system: A498
# A549 = test system: A549
# ACHN = test system: ACHN
# CAKI-1 = test system: CAKI-1
# CCRF-CEM = test system: CCRF-CEM
# COLO 205 = test system: COLO 205
# DLD-1 = test system: DLD-1
# DMS-114 = test system: DMS-114
# DMS-273 = test system: DMS-273
# EKVX = test system: EKVX
# HCC 2998 = test system: HCC 2998
# HCT-116 = test system: HCT-116
# HCT-15 = test system: HCT-15
# HL-60 = test system: HL-60
# HOP-18 = test system: HOP-18
# HOP-62 = test system: HOP-62
# HOP-92 = test system: HOP-92
# HT-29 = test system: HT-29
# IGROV-1 = test system: IGROV-1
# K562 = test system: K562
# KM-20L2 = test system: KM-20L2
# KM12 = test system: KM12
# LOX IMVI = test system: LOX IMVI
# LXFL 529 = test system: LXFL 529
# M14 = test system: M14
# M19-MEL = test system: M19-MEL
# MOLT-4 = test system: MOLT-4
# Malme-3M = test system: Malme-3M
# NCI-H226 = test system: NCI-H226
# NCI-H23 = test system: NCI-H23
# NCI-H460 = test system: NCI-H460
# NCI-H522 = test system: NCI-H522
# OVCAR-3 = test system: OVCAR-3
# OVCAR-4 = test system: OVCAR-4
# OVCAR-5 = test system: OVCAR-5
# OVCAR-8 = test system: OVCAR-8
# RPMI-8226 = test system: RPMI-8226
# RXF 393 = test system: RXF 393
# SF-268 = test system: SF-268
# SF-295 = test system: SF-295
# SF-539 = test system: SF-539
# SK-MEL-28 = test system: SK-MEL-28
# SK-MEL-2 = test system: SK-MEL-2
# SK-MEL-5 = test system: SK-MEL-5
# SK-OV-3 = test system: SK-OV-3
# SN12C = test system: SN12C
# SNB-19 = test system: SNB-19
# SNB-75 = test system: SNB-75
# SNB-78 = test system: SNB-78
# SW-620 = test system: SW-620
# TK-10 = test system: TK-10
# U-251 = test system: U-251
# UACC-257 = test system: UACC-257
# UACC-62 = test system: UACC-62
# UO-31 = test system: UO-31
# XF498 = test system: XF498
# SR = test system: SR
structure (smiles),measurement,setting,value
COc1cc([C@@H]2c3cc4c(cc3[C@@H](NC(=O)c3ccccc3)C3COC(=O)[C@@H]32)OCO4)cc(OC)c1O (some centres not stated),GI50,786-0,4.26 µM (inactive)
same,GI50,A498,6.1 µM (inactive)
same,GI50,A549,1.04 µM (active)
same,GI50,ACHN,1.45 µM (inactive)
same,GI50,CAKI-1,11.3 µM (inactive)
same,GI50,CCRF-CEM,1.57 µM (inactive)
same,GI50,COLO 205,17.5 µM (inactive)
same,GI50,DLD-1,14.9 µM (inactive)
same,GI50,DMS-114,2.61 µM (inactive)
same,GI50,DMS-273,1.52 µM (inactive)
same,GI50,EKVX,21.4 µM (inactive)
same,GI50,HCC 2998,14 µM (inactive)
same,GI50,HCT-116,5.42 µM (inactive)
same,GI50,HCT-15,9.84 µM
same,GI50,HL-60,1.87 µM (inactive)
same,GI50,HOP-18,> 100 µM (inactive)
same,GI50,HOP-62,2.54 µM (inactive)
same,GI50,HOP-92,8.39 µM (inactive)
same,GI50,HT-29,3.18 µM (inactive)
same,GI50,IGROV-1,1.65 µM (inactive)
same,GI50,K562,3.27 µM (inactive)
same,GI50,KM-20L2,2.71 µM (inactive)
same,GI50,KM12,7.28 µM (inactive)
same,GI50,LOX IMVI,2.52 µM (inactive)
same,GI50,LXFL 529,12.1 µM (inactive)
same,GI50,M14,5.57 µM (inactive)
same,GI50,M19-MEL,4.82 µM (inactive)
same,GI50,MOLT-4,0.491 µM (active)
same,GI50,Malme-3M,3.61 µM (inactive)
same,GI50,NCI-H226,1.53 µM (inactive)
same,GI50,NCI-H23,2.77 µM (inactive)
same,GI50,NCI-H460,0.361 µM (active)
same,GI50,NCI-H522,0.423 µM (active)
same,GI50,OVCAR-3,20.8 µM (inactive)
same,GI50,OVCAR-4,39.7 µM (inactive)
same,GI50,OVCAR-5,49.9 µM (inactive)
same,GI50,OVCAR-8,8.99 µM (inactive)
same,GI50,RPMI-8226,2.61 µM (inactive)
same,GI50,RXF 393,7.31 µM (inactive)
same,GI50,SF-268,4.55 µM (inactive)
same,GI50,SF-295,3.51 µM (inactive)
same,GI50,SF-539,6.14 µM (inactive)
same,GI50,SK-MEL-28,13.8 µM (inactive)
same,GI50,SK-MEL-2,20.3 µM (inactive)
same,GI50,SK-MEL-5,2.31 µM (inactive)
same,GI50,SK-OV-3,6.62 µM (inactive)
same,GI50,SN12C,2.55 µM (inactive)
same,GI50,SNB-19,19.4 µM (inactive)
same,GI50,SNB-75,5.43 µM (inactive)
same,GI50,SNB-78,41.2 µM (inactive)
same,GI50,SW-620,10.3 µM (inactive)
same,GI50,TK-10,32.4 µM (inactive)
same,GI50,U-251,1.32 µM (inactive)
same,GI50,UACC-257,2.99 µM (inactive)
same,GI50,UACC-62,0.568 µM (active)
same,GI50,UO-31,4.89 µM (inactive)
OCCNCN(CNCCO)c1nc(N(CNCCO)CNCCO)nc(N(CNCCO)CNCCO)n1,GI50,A498,0.0764 µM (active)
same,GI50,A549,0.0711 µM (active)
same,GI50,ACHN,0.04 µM (active)
same,GI50,CCRF-CEM,0.04 µM (active)
same,GI50,COLO 205,0.0411 µM (active)
same,GI50,DLD-1,0.04 µM (active)
same,GI50,DMS-273,> 0.4 µM (active)
same,GI50,EKVX,0.0679 µM (active)
same,GI50,HCT-15,0.0556 µM
same,GI50,HOP-18,0.0841 µM (active)
same,GI50,HOP-62,0.0687 µM (active)
same,GI50,HOP-92,0.0743 µM (active)
same,GI50,HT-29,> 0.4 µM (active)
same,GI50,IGROV-1,0.0757 µM (active)
same,GI50,K562,0.04 µM (active)
same,GI50,KM-20L2,0.103 µM (active)
same,GI50,KM12,0.137 µM (active)
same,GI50,LOX IMVI,0.0916 µM (active)
same,GI50,LXFL 529,0.04 µM (active)
same,GI50,M14,0.0577 µM (active)
same,GI50,M19-MEL,0.0405 µM (active)
same,GI50,MOLT-4,0.0873 µM (active)
same,GI50,Malme-3M,0.04 µM (active)
same,GI50,NCI-H226,0.0802 µM (active)
same,GI50,NCI-H23,0.0655 µM (active)
same,GI50,NCI-H460,0.118 µM (active)
same,GI50,NCI-H522,0.0653 µM (active)
same,GI50,OVCAR-3,0.0908 µM (active)
same,GI50,OVCAR-4,0.0715 µM (active)
same,GI50,OVCAR-5,0.146 µM (active)
same,GI50,OVCAR-8,0.0755 µM (active)
same,GI50,RXF 393,0.0676 µM (active)
same,GI50,SF-268,0.0578 µM (active)
same,GI50,SF-295,0.082 µM (active)
same,GI50,SF-539,0.075 µM (active)
same,GI50,SK-MEL-28,0.04 µM (active)
same,GI50,SK-MEL-2,0.0838 µM (active)
same,GI50,SK-OV-3,0.0861 µM (active)
same,GI50,SN12C,0.131 µM (active)
same,GI50,SNB-19,0.0708 µM (active)
same,GI50,SNB-78,0.0959 µM (active)
same,GI50,SW-620,0.04 µM (active)
same,GI50,TK-10,0.133 µM (active)
same,GI50,U-251,0.0745 µM (active)
same,GI50,UACC-257,0.0643 µM (active)
same,GI50,UO-31,0.0851 µM (active)
same,GI50,XF498,> 0.4 µM (active)
O=C(N/C(=C\c1cccc([N+](=O)[O-])c1)c1nc2c3c(ccc2[nH]1)C(=O)c1ccccc1C3=O)c1ccccc1,GI50,786-0,26.1 µM (inactive)
same,GI50,A498,83 µM (inactive)
same,GI50,A549,30.9 µM (inactive)
same,GI50,ACHN,16.6 µM (inactive)
same,GI50,CAKI-1,7.18 µM (inactive)
same,GI50,DLD-1,12.2 µM (inactive)
same,GI50,DMS-114,26.4 µM (inactive)
same,GI50,EKVX,12.8 µM (inactive)
same,GI50,HCT-116,31.6 µM (inactive)
same,GI50,HCT-15,15 µM
same,GI50,HOP-18,> 100 µM (inactive)
same,GI50,HOP-62,37.8 µM (inactive)
same,GI50,HOP-92,32.4 µM (inactive)
same,GI50,HT-29,35.6 µM (inactive)
same,GI50,KM-20L2,30.2 µM (inactive)
same,GI50,KM12,14.5 µM (inactive)
same,GI50,LXFL 529,16 µM (inactive)
same,GI50,M14,45.5 µM (inactive)
same,GI50,Malme-3M,40.7 µM (inactive)
same,GI50,NCI-H226,14 µM (inactive)
same,GI50,NCI-H23,30.3 µM (inactive)
same,GI50,NCI-H460,24.7 µM (inactive)
same,GI50,NCI-H522,16.5 µM (inactive)
same,GI50,OVCAR-3,49.1 µM (inactive)
same,GI50,OVCAR-5,26.5 µM (inactive)
same,GI50,OVCAR-8,36.5 µM (inactive)
same,GI50,RPMI-8226,14.1 µM (inactive)
same,GI50,SF-268,17.8 µM (inactive)
same,GI50,SF-539,21.4 µM (inactive)
same,GI50,SK-MEL-28,19.9 µM (inactive)
same,GI50,SK-MEL-2,35 µM (inactive)
same,GI50,SK-MEL-5,31.2 µM (inactive)
same,GI50,SK-OV-3,6.78 µM (inactive)
same,GI50,SN12C,28 µM (inactive)
same,GI50,SNB-19,41.4 µM (inactive)
same,GI50,SNB-75,58.6 µM (inactive)
same,GI50,SNB-78,> 100 µM (inactive)
same,GI50,SR,5.86 µM (inactive)
same,GI50,SW-620,45.5 µM (inactive)
same,GI50,TK-10,20.2 µM (inactive)
same,GI50,U-251,34.8 µM (inactive)
same,GI50,UACC-62,55.2 µM (inactive)
same,GI50,UO-31,> 100 µM (inactive)
same,GI50,XF498,57.9 µM (inactive)
